In patent US20230233569A1 (Revolution Medicines, Inc., priority 2020, published 2023):

Legend:
Experiment in all cases: Ras-Raf disruption / FRET / MOA assay (BRAF RBD)
Assay type in all cases: biochemical
KRAS G12D = KRAS G12D (Homo sapiens, UniProt P01116+P62937, G12D); settings: Ras-Raf disruption, with Cyclophilin A; read-out: KRAS G12D FRET data IC50
Outline: (§1)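 TR-FRET in 25 mM HEPES pH 7.3, 100 mM NaCl, 5 mM MgCl2, 0.1% BSA, 0.002% Tween20 with 25 μM Cyclophilin A, 12.5 nM His6-Ras-GMPPNP, 50 nM GST-BRAF RBD; compound 10-point 3-fold series from 30 μM. After 3 h at 25 °C, Eu anti-His/APC anti-GST added for 1.5 h; IC50 from ratio decrease versus DMSO.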

KRAS G12S = KRAS G12S (Homo sapiens, UniProt P01116+P62937, G12S); settings: Ras-Raf disruption, with Cyclophilin A; read-out: KRAS G12S FRET data IC50
Chain of KRAS G12S (P01116 1-169 isoform P01116-2 G12S limits assumed): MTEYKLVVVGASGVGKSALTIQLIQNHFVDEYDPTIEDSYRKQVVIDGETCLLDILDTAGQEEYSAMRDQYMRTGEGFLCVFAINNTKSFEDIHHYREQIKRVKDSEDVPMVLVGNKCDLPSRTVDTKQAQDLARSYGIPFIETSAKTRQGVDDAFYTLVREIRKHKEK
Chain of KRAS G12S (P62937 whole entry): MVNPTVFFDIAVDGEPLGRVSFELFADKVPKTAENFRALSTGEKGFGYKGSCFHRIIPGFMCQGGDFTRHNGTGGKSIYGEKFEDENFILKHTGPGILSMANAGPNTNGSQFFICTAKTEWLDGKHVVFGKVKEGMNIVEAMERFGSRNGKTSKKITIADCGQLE
Outline: as §1

KRAS G12V = KRAS G12V (Homo sapiens, UniProt P01116+P62937, G12V); settings: Ras-Raf disruption, with Cyclophilin A; read-out: KRAS G12V FRET data IC50
Chain of KRAS G12V (P01116 1-169 isoform P01116-2 G12V limits assumed): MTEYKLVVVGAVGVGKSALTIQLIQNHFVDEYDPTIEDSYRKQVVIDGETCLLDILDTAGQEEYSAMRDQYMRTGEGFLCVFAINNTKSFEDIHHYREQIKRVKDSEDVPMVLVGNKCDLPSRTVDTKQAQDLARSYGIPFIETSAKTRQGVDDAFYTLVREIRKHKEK
Chain of KRAS G12V (P62937 whole entry): as the sequence (P62937 whole entry) above
Outline: as §1

KRAS G13C = KRAS G13C (Homo sapiens, UniProt P01116+P62937, G13C); settings: Ras-Raf disruption, with Cyclophilin A; read-out: KRAS G13C FRET data IC50
Chain of KRAS G13C (P01116 1-169 isoform P01116-2 G13C limits assumed): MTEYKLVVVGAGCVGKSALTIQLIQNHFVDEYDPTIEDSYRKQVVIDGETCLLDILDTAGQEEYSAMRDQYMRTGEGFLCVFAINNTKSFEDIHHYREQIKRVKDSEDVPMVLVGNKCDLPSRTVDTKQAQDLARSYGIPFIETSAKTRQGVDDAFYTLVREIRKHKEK
Chain of KRAS G13C (P62937 whole entry): as the sequence (P62937 whole entry) above
Outline: as §1

KRAS G13D = KRAS G13D (Homo sapiens, UniProt P01116+P62937, G13D); settings: Ras-Raf disruption, with Cyclophilin A; read-out: KRAS G13D FRET data IC50
Chain of KRAS G13D (P01116 1-169 isoform P01116-2 G13D limits assumed): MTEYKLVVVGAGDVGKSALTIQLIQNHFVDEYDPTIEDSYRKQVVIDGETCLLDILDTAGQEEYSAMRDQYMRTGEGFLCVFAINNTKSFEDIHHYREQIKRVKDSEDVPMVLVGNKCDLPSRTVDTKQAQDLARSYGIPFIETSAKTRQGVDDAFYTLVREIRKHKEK
Chain of KRAS G13D (P62937 whole entry): as the sequence (P62937 whole entry) above
Outline: as §1

KRAS Q61H = KRAS Q61H (Homo sapiens, UniProt P01116+P62937, Q61H); settings: KRAS Q61H; read-out: KRAS Q61H FRET data IC50
Chain of KRAS Q61H (P01116 1-169 isoform P01116-2 Q61H limits assumed): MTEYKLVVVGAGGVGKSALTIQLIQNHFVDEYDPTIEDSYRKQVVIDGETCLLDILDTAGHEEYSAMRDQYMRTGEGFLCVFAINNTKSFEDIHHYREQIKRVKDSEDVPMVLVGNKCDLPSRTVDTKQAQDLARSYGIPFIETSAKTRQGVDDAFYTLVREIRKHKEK
Chain of KRAS Q61H (P62937 whole entry): as the sequence (P62937 whole entry) above
Outline: as §1

KRAS WT = KRAS WT (Homo sapiens, UniProt P01116+P62937); settings: Ras-Raf disruption, with Cyclophilin A; read-out: KRAS WT FRET data IC50
Chain of KRAS WT (P01116 1-169 isoform P01116-2 limits assumed): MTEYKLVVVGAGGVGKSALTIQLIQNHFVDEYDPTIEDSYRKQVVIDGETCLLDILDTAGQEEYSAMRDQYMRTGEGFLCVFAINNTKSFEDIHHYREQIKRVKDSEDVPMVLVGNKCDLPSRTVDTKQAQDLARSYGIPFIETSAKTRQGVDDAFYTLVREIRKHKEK
Chain of KRAS WT (P62937 whole entry): as the sequence (P62937 whole entry) above
Outline: as §1

NRAS G12C = NRAS G12C (Homo sapiens, UniProt P01111+P62937, G12C); settings: NRAS G12C; read-out: NRAS G12C FRET data IC50
Chain of NRAS G12C (P01111 whole entry G12C): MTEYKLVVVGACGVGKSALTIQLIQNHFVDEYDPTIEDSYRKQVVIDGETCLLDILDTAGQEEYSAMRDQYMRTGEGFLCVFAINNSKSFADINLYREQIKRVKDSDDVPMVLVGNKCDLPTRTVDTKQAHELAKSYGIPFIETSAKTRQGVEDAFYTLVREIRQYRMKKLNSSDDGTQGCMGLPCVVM
Chain of NRAS G12C (P62937 whole entry): as the sequence (P62937 whole entry) above
Outline: as §1

NRAS Q61K = NRAS Q61K (Homo sapiens, UniProt P01111+P62937, Q61K); settings: NRAS Q61K; read-out: NRAS Q61K FRET data IC50
Chain of NRAS Q61K (P01111 whole entry Q61K): as the sequence (P01111 whole entry G12C) above, with C12G, Q61K counted along it
Chain of NRAS Q61K (P62937 whole entry): as the sequence (P62937 whole entry) above
Outline: as §1

NRAS Q61R = NRAS Q61R (Homo sapiens, UniProt P01111+P62937, Q61R); settings: NRAS Q61R; read-out: NRAS Q61R FRET data IC50
Chain of NRAS Q61R (P01111 whole entry Q61R): as the sequence (P01111 whole entry G12C) above, with C12G, Q61R counted along it
Chain of NRAS Q61R (P62937 whole entry): as the sequence (P62937 whole entry) above
Outline: as §1

NRAS WT = NRAS WT (Homo sapiens, UniProt P01111+P62937); settings: NRAS WT; read-out: NRAS WT FRET data IC50
Chain of NRAS WT (P01111 whole entry): as the sequence (P01111 whole entry G12C) above, with C12G counted along it
Chain of NRAS WT (P62937 whole entry): as the sequence (P62937 whole entry) above
Outline: as §1

KRAS G12C = KRAS G12C (Homo sapiens, UniProt P01116+P62937, G12C); settings: Ras-Raf disruption, with Cyclophilin A; read-out: KRAS G12C FRET data IC50
Chain of KRAS G12C (P01116 1-169 isoform P01116-2 G12C limits assumed): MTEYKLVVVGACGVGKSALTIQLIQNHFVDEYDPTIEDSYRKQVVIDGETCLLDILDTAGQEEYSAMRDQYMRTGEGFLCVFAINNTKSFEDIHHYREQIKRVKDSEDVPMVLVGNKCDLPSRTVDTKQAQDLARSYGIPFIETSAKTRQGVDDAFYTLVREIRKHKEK
Chain of KRAS G12C (P62937 whole entry): as the sequence (P62937 whole entry) above
Outline: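 His6-K-Ras G12C-GMPPNP (12.5 nM), GST-BRAF RBD (50 nM) and tagless Cyclophilin A (25 μM) incubated 3 h at 25 °C with compound (10-point 3-fold series from 30 μM), pH 7.3 HEPES buffer. Anti-His Eu/anti-GST APC added for 1.5 h; decreased TR-FRET ratio vs DMSO gives IC50.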

Chain of KRAS G12D (P01116 1-169 isoform P01116-2 G12D limits assumed): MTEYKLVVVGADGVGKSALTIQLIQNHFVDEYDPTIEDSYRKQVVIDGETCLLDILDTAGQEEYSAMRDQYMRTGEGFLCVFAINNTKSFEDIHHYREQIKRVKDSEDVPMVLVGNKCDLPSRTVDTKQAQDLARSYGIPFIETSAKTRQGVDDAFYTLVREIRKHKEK
Chain of KRAS G12D (P62937 whole entry): as the sequence (P62937 whole entry) above

Compound | IC50 (KRAS G12D) | IC50 (KRAS G12S) | IC50 (KRAS G12V) | IC50 (KRAS G13C) | IC50 (KRAS G13D) | IC50 (KRAS Q61H) | IC50 (KRAS WT) | IC50 (NRAS G12C) | IC50 (NRAS Q61K) | IC50 (NRAS Q61R) | IC50 (NRAS WT) | IC50 (KRAS G12C)
CCn1c(-c2cccnc2[C@H](C)OC)c2c3cc(ccc31)-c1cc(O)cc(c1)C[C@H](NC(=O)[C@H](C(C)C)N(C)C(=O)[C@H]1CCCCN(C(=O)[C@H]3CN3)C1)C(=O)N1CCC[C@H](N1)C(=O)OCC(C)(C)C2 (atropisomer, axis not shown) [Example 247] | 1000 to 10000 nM | 100 to 1000 nM | 100 to 1000 nM | 100 to 1000 nM | 100 to 1000 nM | 100 to 1000 nM | 100 to 1000 nM | 10 to 100 nM | 1000 to 10000 nM | 1000 to 10000 nM | 100 to 1000 nM | 10 to 100 nM
CCn1c(-c2cccnc2[C@H](C)OC)c2c3cc(ccc31)-c1cc(O)cc(c1)C[C@H](NC(=O)[C@H](C(C)C)N(C)C(=O)N1C[C@@H]3[C@H]1CCN3C(=O)[C@H]1CN1)C(=O)N1CCC[C@H](N1)C(=O)OCC(C)(C)C2 (atropisomer, axis not shown) [Example 250] | 1000 to 10000 nM | 100 to 1000 nM | 100 to 1000 nM | 100 to 1000 nM | 1000 to 10000 nM | 100 to 1000 nM | 100 to 1000 nM | 100 to 1000 nM | 1000 to 10000 nM | 1000 to 10000 nM | 100 to 1000 nM | 10 to 100 nM
CCn1c(-c2cccnc2[C@H](C)OC)c2c3cc(ccc31)-c1cc(O)cc(c1)C[C@H](NC(=O)[C@H](C(C)C)N(C)C(=O)N1C[C@@H]3[C@H]1CCN3C(=O)[C@@H]1CN1)C(=O)N1CCC[C@H](N1)C(=O)OCC(C)(C)C2 (atropisomer, axis not shown) [Example 251] | 1000 to 10000 nM | 100 to 1000 nM | 100 to 1000 nM | 10 to 100 nM | 1000 to 10000 nM | 100 to 1000 nM | 100 to 1000 nM | 10 to 100 nM | 1000 to 10000 nM | 1000 to 10000 nM | 100 to 1000 nM | 10 to 100 nM
CCn1c(-c2cccnc2[C@H](C)OC)c2c3cc(ccc31)-c1cc(O)cc(c1)C[C@H](NC(=O)[C@H](C(C)C)N(C)C(=O)N1CC[C@@H](N(C)C(=O)[C@H]3CN3)C1)C(=O)N1CCC[C@H](N1)C(=O)OCC(C)(C)C2 (atropisomer, axis not shown) [Example 252] | 100 to 1000 nM | 100 to 1000 nM | 100 to 1000 nM | 10 to 100 nM | 100 to 1000 nM | 10 to 100 nM | 10 to 100 nM | < 10 nM | 100 to 1000 nM | 100 to 1000 nM | 10 to 100 nM | < 10 nM
CCn1c(-c2cccnc2[C@H](C)OC)c2c3cc(ccc31)-c1cc(O)cc(c1)C[C@H](NC(=O)[C@H](C(C)C)N(C)C(=O)N1CC[C@@H](N(C)C(=O)[C@@H]3CN3)C1)C(=O)N1CCC[C@H](N1)C(=O)OCC(C)(C)C2 (atropisomer, axis not shown) [Example 253] | 100 to 1000 nM | 100 to 1000 nM | 100 to 1000 nM | 10 to 100 nM | 100 to 1000 nM | 10 to 100 nM | 10 to 100 nM | 10 to 100 nM | 100 to 1000 nM | 100 to 1000 nM | 10 to 100 nM | 10 to 100 nM
CCn1c(-c2cccnc2[C@H](C)OC)c2c3cc(ccc31)-c1cc(O)cc(c1)C[C@H](NC(=O)[C@H](C(C)C)N(C)C(=O)N1CC[C@H](N(C)C(=O)[C@H]3CN3)C1)C(=O)N1CCC[C@H](N1)C(=O)OCC(C)(C)C2 (atropisomer, axis not shown) [Example 254] | 100 to 1000 nM | 100 to 1000 nM | 100 to 1000 nM | 10 to 100 nM | 100 to 1000 nM | 10 to 100 nM | 100 to 1000 nM | 10 to 100 nM | 100 to 1000 nM | 100 to 1000 nM | 100 to 1000 nM | 10 to 100 nM
CCn1c(-c2cccnc2[C@H](C)OC)c2c3cc(ccc31)-c1cc(O)cc(c1)C[C@H](NC(=O)[C@H](C(C)C)N(C)C(=O)N1CC[C@H](N(C)C(=O)[C@@H]3CN3)C1)C(=O)N1CCC[C@H](N1)C(=O)OCC(C)(C)C2 (atropisomer, axis not shown) [Example 255] | 100 to 1000 nM | 10 to 100 nM | 100 to 1000 nM | 10 to 100 nM | 100 to 1000 nM | 10 to 100 nM | 100 to 1000 nM | 10 to 100 nM | 100 to 1000 nM | 100 to 1000 nM | 10 to 100 nM | 10 to 100 nM
CCn1c(-c2cccnc2[C@H](C)OC)c2c3cc(ccc31)-c1cc(O)cc(c1)C[C@H](NC(=O)[C@H](C(C)C)N(C)C(=O)CN(C)C(=O)[C@H]1C[C@@H]3N[C@@H]3C1)C(=O)N1CCC[C@H](N1)C(=O)OCC(C)(C)C2 (atropisomer, axis not shown) [Example 285] | 10 to 100 nM | 10 to 100 nM | 10 to 100 nM | < 10 nM | 10 to 100 nM | 10 to 100 nM | 10 to 100 nM | 10 to 100 nM | 100 to 1000 nM | 100 to 1000 nM | 10 to 100 nM | 10 to 100 nM
CCn1c(-c2cccnc2[C@H](C)OC)c2c3cc(ccc31)-c1cc(O)cc(c1)C[C@H](NC(=O)[C@H](C(C)C)N(C)C(=O)[C@H]1C[C@@H]3N[C@@H]3C1)C(=O)N1CCC[C@H](N1)C(=O)OCC(C)(C)C2 (atropisomer, axis not shown) [Example 286] | 100 to 1000 nM | 100 to 1000 nM | 100 to 1000 nM | 10 to 100 nM | 10 to 100 nM | 10 to 100 nM | 100 to 1000 nM | 100 to 1000 nM | 100 to 1000 nM | 100 to 1000 nM | 100 to 1000 nM | 100 to 1000 nM
CCn1c(-c2cccnc2[C@H](C)OC)c2c3cc(ccc31)-c1csc(n1)C[C@H](NC(=O)[C@H](C(C)C)N(C)C(=O)N1CCC[C@H](N(C)C(=O)[C@@H]3CN3)C1)C(=O)N1CCC[C@H](N1)C(=O)OCC(C)(C)C2 (atropisomer, axis not shown) [Example 292] | 1000 to 10000 nM | 100 to 1000 nM | 100 to 1000 nM | 100 to 1000 nM | 1000 to 10000 nM | 100 to 1000 nM | 100 to 1000 nM | 100 to 1000 nM | 100 to 1000 nM | 100 to 1000 nM | 100 to 1000 nM | 100 to 1000 nM
CCn1c(-c2cccnc2[C@H](C)OC)c2c3cc(ccc31)-c1csc(n1)C[C@H](NC(=O)[C@H](C(C)C)N(C)C(=O)N(C)CC1CN(C(=O)[C@H]3CN3)C1)C(=O)N1CCC[C@H](N1)C(=O)OCC(C)(C)C2 (atropisomer, axis not shown) [Example 293] | 100 to 1000 nM | 100 to 1000 nM | 100 to 1000 nM | 100 to 1000 nM | 100 to 1000 nM | 10 to 100 nM | 100 to 1000 nM | 10 to 100 nM | 10 to 100 nM | 100 to 1000 nM | 100 to 1000 nM | 10 to 100 nM
CCn1c(-c2cccnc2[C@H](C)OC)c2c3cc(ccc31)-c1csc(n1)C[C@H](NC(=O)[C@H](C(C)C)N(C)C(=O)N(C)CC1CN(C(=O)[C@@H]3CN3)C1)C(=O)N1CCC[C@H](N1)C(=O)OCC(C)(C)C2 (atropisomer, axis not shown) [Example 294] | 100 to 1000 nM | 100 to 1000 nM | 100 to 1000 nM | 100 to 1000 nM | 100 to 1000 nM | 10 to 100 nM | 100 to 1000 nM | 10 to 100 nM | 10 to 100 nM | 100 to 1000 nM | 100 to 1000 nM | 10 to 100 nM
